These results are taken from publication PMC11965454, “Simultaneous determination of lesinurad and co-administered drugs used in management of gout comorbidities to uncover potential pharmacokinetic interaction in rat plasma” (Scientific Reports, 2025).

The half-life is how long it takes for the measured level to halve. A higher half-life goes with slow loss. The term Tmax denotes the time from dosing to the highest level. By Cmax is commonly meant the peak of the concentration-time curve. The AUC is the area under the concentration-time curve, a measure of exposure.

Data set [1] can be described thus: Stock solution stability (methanol), HPLC-DAD. In kind it is physicochemical. To be noted: stock solution in methanol, n = 3; for recovery at 6 h, 1000 ng/ml / recovery at 6 h, 10000 ng/ml / recovery at 6 h, 25000 ng/ml: 6 h at room temperature, read-out: Stock solution stability (room temp.) Recovery%; for recovery at 30 days, 1000 ng/ml / recovery at 30 days, 10000 ng/ml / recovery at 30 days, 25000 ng/ml: 30 days at 4 °C; for recovery at 6 h, 10000 ng/ml / recovery at 30 days, 10000 ng/ml: 10,000 ng/ml; for recovery at 6 h, 25000 ng/ml / recovery at 30 days, 25000 ng/ml: 25,000 ng/ml.

A short description of data set [2]: Stability of the studied drugs in rat plasma (freeze-thaw, bench-top, long-term), HPLC-DAD. In kind it is in vitro ADME. To be noted: n = 3; for recovery at 6 h, 1000 ng/ml / recovery at 35 days, 1000 ng/ml / recovery at 1000 ng/ml: rat plasma; for recovery at 6 h, 1000 ng/ml / recovery at 6 h, 10000 ng/ml / recovery at 6 h, 25000 ng/ml: 6 h at room temperature; for recovery at 35 days, 1000 ng/ml / recovery at 35 days, 10000 ng/ml / recovery at 35 days, 25000 ng/ml: 35 days at -20 °C; for recovery at 1000 ng/ml / recovery at 10000 ng/ml / recovery at 25000 ng/ml: three cycles -20 °C / room temperature; for recovery at 6 h, 10000 ng/ml / recovery at 35 days, 10000 ng/ml / recovery at 10000 ng/ml: rat plasma, 10,000 ng/ml; for recovery at 6 h, 25000 ng/ml / recovery at 35 days, 25000 ng/ml / recovery at 25000 ng/ml: rat plasma, 25,000 ng/ml. As for the experimental part: Stability studies were conducted by preparing low, medium and high plasma QC samples in triplicates under different conditions and comparing them with freshly prepared quality control samples. Namely, three freeze-thaw cycles (freeze at -20 °C then thaw at room temperature for three cycles), bench-top stability testing for 6 h at room temperature and long-term stability testing for 35 days at -20 °C.

Data set [3] can be described thus: Drug interaction pharmacokinetic study of LES and ETC, single oral dose, plasma levels by HPLC-DAD. In kind it is in vivo, Sprague-Dawley rats. The settings on record: for k el: read-out: Ke (converted); for AUC: n=5; for Change of Ke: after repeated administration of the other drug vs alone; for Change of area under the curve (AUC): single oral dose following the repeated administration of the other drug vs alone. From the text:
The HPLC-DAD system consisted of Agilent 1200 series (auto-injector, quaternary pump, vacuum degasser and diode array and multiple wavelength detector G1315 C/D and G1365 C/D) connected to a computer loaded with Agilent ChemStation Software (Agilent Technologies, Santa Clara, CA, USA). […] The chromatographic separation was achieved using a Zorbax Eclipse Plus C18 (4.6 × 250 mm, 5 μm particle size) column attached to Zorbax Eclipse Plus C18 (4.6 × 12.5 mm, 5 μm particle size) analytical guard column (Agilent Technologies, Santa Clara, CA, USA). The gradient elution was composed of the mobile phase: acetonitrile and 0.05 M potassium dihydrogen orthophosphate eluted in the ratios and at flow rates listed in Table 1 using an injection volume of 50 µL. All determinations were performed at 25 °C. All pH measurements were made using a Hanna pH meter, (RI, USA). Calibration was done using standard buffers of pH 4 and 7 at room temperature.
The internal standard DIC (0.05 mL) was added to each 0.2 mL rat plasma sample. To the rat plasma sample, 0.6 mL of acetonitrile were added. In order to equalize the final volumes in both; the standard calibration curve samples and the rat plasma samples, up to 1 mL of methanol were added. The samples were covered, vortexed for 1 min at high speed followed by centrifugation for 10 min at ~ 2500 × g. The organic layer was transferred to HPLC autosampler vials. For each sample, 50 µL were directly injected into the HPLC system.
The animal study has been designed and the results have been reported in accordance with the ARRIVE Guidelines. All animal experiments were conducted according to an experimental protocol approved by the Institutional Animal Care and Use Committee at Alexandria University (Serial Number 135) and in compliance with the Guide for the Care and Use of Laboratory Animals of the Institute for Laboratory Animal Research of the National Academy of Sciences, U.S.A. Animals were obtained from the animal facility at the Research and Innovation Hub at Alamein International University. Single dose pharmacokinetics of LES and ETC, as well as the effect of repeated administration of one on the PK parameters of the other reflecting the PK interactions if any, were assessed as described in our previous work[33]. Since the parameters of the oral pharmacokinetic investigation in experimental animals, in terms of feeding and fasting durations, oral dosing timing and volumes, blood sampling, as well as time intervals of redosing, can be controlled with relative ease, rat group sizes of 5–6 were sufficient for the detection of statistical difference in previous studies carried out in our laboratory[34],[35], and in other groups[36],[37], including studies that looked into the pharmacokinetics of ETC and LES[27],[38]. As will be seen below, the experiment was designed for paired comparison with before and ater measurements from the same rats, further increasing the power for statistical analysis. As such, ten healthy adult male Sprague-Dawley rats (8 weeks of age, ~ 250 g weight) were randomized into two groups of five rats each: LES PK group and ETC PK group. No criteria were set for animal allocation per group. Rats were housed in polycarbonate cages on wood shavings bedding at the animal facility at Alamein International University under controlled temperature (23 °C) and humidity (45%) and a 12-hour dark/light cycle. Rats were given ad libitum access to drinking water and commercial rodent chow (21% protein, Al-Fajr Animal Feed, Beheira, Egypt) prior to and during the experiment. The PK parameters of single doses of each drug were determined at baseline in the respective group and once more after seven days of administration of the other drug, without a washout period. To elaborate, on Day 0, following twelve hours of fasting, rats in each group received a single dose of the respective drug by oral gavage (15 mg/Kg for LES[27], and 5 mg/Kg for ETC[39]). […]

Another data set has as its system plasma albumin. To be noted: cited from earlier work.
Setting [4] is: male, Sprague-Dawley, ETC 5 mg/Kg single oral dose alone (Day 0), rat plasma, Mean ± SEM.
Where [5] appears, read: male, Sprague-Dawley, plasma, LES 15 mg/Kg single oral dose alone (Day 0), rat, Mean ± SEM.

Read-outs that look alike come from different tables or passages of the source.

On to `COC(=O)[C@@H]1CC2=CC(=O)CC[C@]2(C)[C@@]23O[C@@H]2C[C@@]2(C)[C@@H](CC[C@@]24CCC(=O)O4)[C@H]13` [EPL, eplerenone], for which, in data set [1], the recovery at 6 h, 1000 ng/ml amounted to 101%; the recovery at 30 days, 1000 ng/ml stood at 102%; the recovery at 6 h, 10000 ng/ml turned out to be 102%; the recovery at 30 days, 10000 ng/ml was 97.9%. Also, in data set [1], the recovery at 6 h, 25000 ng/ml came out at 102% and the recovery at 30 days, 25000 ng/ml worked out at 98.9%. In data set [2], this compound came in with a recovery at 6 h, 1000 ng/ml of 105%; a recovery at 35 days, 1000 ng/ml of 104%; a recovery at 1000 ng/ml of 91.9%; a recovery at 6 h, 10000 ng/ml of 96.8%. In data set [2], the recovery at 35 days, 10000 ng/ml came to 97.6%; the recovery at 10000 ng/ml was 94.3%; the recovery at 6 h, 25000 ng/ml amounted to 94.2%; the recovery at 35 days, 25000 ng/ml was found to be 92.6%. In data set [2], this compound came in with a recovery at 25000 ng/ml of 103%.

With `Cc1ccc(-c2ncc(Cl)cc2-c2ccc(S(C)(=O)=O)cc2)cn1` [ETC, etoricoxib], in data set [1], the recovery at 6 h, 1000 ng/ml turned out to be 99.5%; the recovery at 30 days, 1000 ng/ml was determined as 98.3%; the recovery at 6 h, 10000 ng/ml was found to be 99.5%; the recovery at 30 days, 10000 ng/ml stood at 96.4%. In addition, in data set [1], the recovery at 6 h, 25000 ng/ml came out at 98.8% and the recovery at 30 days, 25000 ng/ml amounted to 99.2%. In data set [3] (ETC 5 mg/Kg single oral dose alone (Day 0), rat, method of residuals, Mean ± SEM), this compound gave a Ka of 1.82 ± 0.55 h⁻¹. Also, the k el in data set [3] (male, Sprague-Dawley, plasma, ETC 5 mg/Kg single oral dose alone (Day 0), rat, Mean ± SEM) is 4.17e-05 s⁻¹. Further, the half-life in data set [3] (male, Sprague-Dawley, plasma, ETC 5 mg/Kg single oral dose alone (Day 0), rat, one phase decay, Mean ± SEM) was 4.88 ± 0.56 h. Besides, in data set [3] (male, Sprague-Dawley, plasma, ETC 5 mg/Kg single oral dose alone (Day 0), rat, read-out: Tmax), the time of peak concentration (Tmax) came out at 1 h. In data set [3] (setting [4]), this compound had a Cmax of 1170 ± 148 ng/mL and an AUC of 11200 ng·h/mL. In data set [3] (rat, ETC in the continued presence of LES vs alone), the “Change of absorption rate constant (Ka)” value is “increased Ka”. For the same compound, in data set [3] (rat), the “Change of Ke” value is given as “neither t1/2 nor Ke changed” and the “Change of area under the curve (AUC)” value was “increased”. Moreover, the “Binding to plasma albumin” value with plasma albumin (ref PMID: 18840026) is “extensively bound to plasma albumin”. Also, in data set [2], the recovery at 6 h, 1000 ng/ml worked out at 97.5%; the recovery at 35 days, 1000 ng/ml worked out at 95.8%; the recovery at 1000 ng/ml was 98%; the recovery at 6 h, 10000 ng/ml was found to be 92.8%. In addition, in data set [2], the recovery at 35 days, 10000 ng/ml stood at 94.1%; the recovery at 10000 ng/ml was 95.3%; the recovery at 6 h, 25000 ng/ml came to 92.7%; the recovery at 35 days, 25000 ng/ml was determined as 90.4%. In addition, in data set [2], the recovery at 25000 ng/ml turned out to be 96.5%.

In the case of `O=C(O)CSc1nnc(Br)n1-c1ccc(C2CC2)c2ccccc12` [LES, lesinurad], in data set [1], the recovery at 6 h, 1000 ng/ml is 97.3%; the recovery at 30 days, 1000 ng/ml was found to be 98.7%; the recovery at 6 h, 10000 ng/ml came to 96.5%; the recovery at 30 days, 10000 ng/ml was 97.2%. In addition, in data set [1], the recovery at 6 h, 25000 ng/ml came out at 94.8% and the recovery at 30 days, 25000 ng/ml was determined as 99.2%. Moreover, in data set [3] (LES 15 mg/Kg single oral dose alone (Day 0), rat), the Tmax is 2 h. In data set [3] (LES 15 mg/Kg single oral dose alone (Day 0), rat, Mean ± SEM), this compound yielded a Ka of 3.32 ± 0.78 h⁻¹. Moreover, in data set [3] (setting [5]), the half-life was 3.96 ± 1.07 h and the k el is 7.78e-05 s⁻¹. Also, the area under the curve (AUC) in data set [3] (male, Sprague-Dawley, LES 15 mg/Kg single oral dose alone (Day 0), rat plasma, Mean ± SEM) was determined as 9600 ± 1890 ng·h/mL. Further, the “Change of Cmax” value in data set [3] (rat, LES after repeated ETC administration vs alone) was “sharp increase in Cmax”. Moreover, in data set [3] (rat), the “Change of Ke” value was “neither t1/2 nor Ke changed” and the “Change of area under the curve (AUC)” value is given as “increased”. Further, the “Binding to plasma albumin” value with plasma albumin (ref PMID: 31191704) was “extensively bound to plasma albumin”. In data set [2], the recovery at 6 h, 1000 ng/ml was 92.5%; the recovery at 35 days, 1000 ng/ml stood at 93.8%; the recovery at 1000 ng/ml turned out to be 91.6%; the recovery at 6 h, 10000 ng/ml turned out to be 92.5%. In data set [2], this compound yielded a recovery at 35 days, 10000 ng/ml of 94.7%; a recovery at 10000 ng/ml of 93.8%; a recovery at 6 h, 25000 ng/ml of 96.1%; a recovery at 35 days, 25000 ng/ml of 94.6%. This compound gave a recovery at 25000 ng/ml in data set [2] of 92.7%.
